# Measurements published in a melting point compilation (Tetko et al.; mined from patent text by program, amines drawn as free bases though some values may be those of a salt).
row,SMILES,melting point
1,CC1(CN2CCC(Cc3ccc(F)cc3)CC2)CC(c2ccc3[nH]c(=O)oc3c2)=NO1 (stereo not drawn),82 to 86 °C
2,COc1cc2ncnc(NC3=CC(=O)C(N4CCOCC4)=CC3=O)c2cc1OC,249 to 250 °C
3,C[C@H]1CCCC(C)(C)[C@@H]1C(=O)c1ccc(C#N)c(F)c1,53 to 56 °C
4,COc1cc2c(cc1Nc1ncc(Cl)c(Nc3ccccc3S(=O)(=O)C(C)C)n1)CCN(CC(=O)N(C)C)CC2,83 to 94 °C
5,CC(=O)NCC(=O)NCC1(SCc2ccccc2)C2CC3CC(C2)CC1C3 (stereo not drawn),132 to 134 °C
6,CS(=O)(=O)c1nc2c(F)cccc2s1,160 °C
7,COc1ccc(-c2ccc(C(N)=O)cc2)cc1OCCCCc1ccccc1,180 to 182 °C
8,O=C1Nc2ccccc2N(C(=O)CCCl)c2ccccc21,241 to 242 °C
9,CCCc1c(OCCCCCBr)ccc2c1OCCC2=O,47 to 48 °C
10,CC(C)c1nc(-c2ncn3c2CN(C(=O)N2CCCC2)c2c(F)cccc2-3)no1,169 to 170 °C
11,CCOC(=O)C1=C(NC(=O)Nc2cc(C(=O)OC(C)C)c(F)cc2F)CCC1,149 to 151 °C
12,O=C(c1c(F)cccc1F)N1COCN(c2ccc(SC(F)(F)C(F)(F)F)cc2F)C1=O,47 to 50 °C
13,COc1cccc(NC(=S)NC(NC(=O)c2ccc(C)cc2)C(F)(F)F)c1 (stereo not drawn),206 to 208 °C
14,COC(=O)C1=C(C)Nc2ccccc2SC1c1cccc(Cl)c1Cl (stereo not drawn),190 to 191 °C
15,COC(=O)Nc1nc2ccccc2n1CCCN1CCN(C(c2ccccc2)c2ccccc2)CC1,138 °C
16,CCc1cc(OCCCN(C)Cc2ccc(OC)c(OC)c2)ccc1NC(=O)c1cccc2c(=O)c3cccc(F)c3[nH]c12,146 °C
17,O=C(Cc1cc(F)cc(F)c1)Nc1cccc2nc(N[C@@H]3CCc4ccccc43)ccc12,221 °C
18,CCOC(=O)CC(=O)NS(=O)(=O)c1ccc([N+](=O)[O-])cc1,97 °C
19,N=c1n(Cc2ccc(F)c(F)c2)c2ccc(Br)cc2n1Cc1ccc(F)c(F)c1,88 to 89.5 °C
20,C/C(=N\O)c1cccc(NC(=O)NCC(=O)N(CC(=O)N2CCCC(C)(C)C2)c2ccccc2)c1,248 °C
21,CC(=O)NCc1c(O)cc2c3c(cccc13)C(=O)N(O)C2=O,268 to 272 °C
22,CC(=O)NCC1CN(c2ccc(N3CCN(C(=O)COC(=O)CN4CCN(C)CC4)CC3)c(F)c2)C(=O)O1 (stereo not drawn),128 to 129 °C
23,CCCCCCCCCCCC(=O)OC(OC(=O)N1CCN(c2cc3c(cc2F)c(=O)c(C(=O)O)cn3CC)CC1)C(=O)OC(C)C (stereo not drawn),106 to 109 °C
24,Fc1cccc(Cn2ncc3cc(Nc4ncnc5cnc(F)cc45)ccc32)c1,218 to 221 °C
25,Cc1ccc(CN2CC=C(/C=C/c3ccc(Cl)cc3)CC2)cc1,113 to 115 °C

row,SMILES,melting point
1,CCc1ccc(N(Cc2ccc(N(C)C)cc2)C(=O)C2CCCc3ccccc32)cc1 (stereo not drawn),109 to 110 °C
2,CC(C)(C(=O)c1ccc(F)cc1)N1CCOCC1,63 to 66 °C
3,O=C(CCl)Nc1ccc2c(c1NC(=O)Cc1ccccc1)C(=O)c1ccccc1C2=O,184 to 185 °C
4,c1ccc(CN2CCC3(CC2)SC(c2ccccc2)c2ccccc23)cc1 (stereo not drawn),144 to 145 °C
5,COc1ccc2c(c1)c(C(C)=NOC1CCCCO1)c(C)n2C(=O)c1ccc(Cl)cc1 (stereo not drawn),115 to 119 °C
6,CC(C)n1nc(-c2c(-c3ccccc3)nn3ccc(N4CCN(C(=O)CN(C)C)CC4)cc23)ccc1=O,129 to 130 °C
7,Cn1cncc1C(O)(c1ccc2c(c1)c(-c1cccc(Cl)c1)cc(=O)n2C)c1nccs1 (stereo not drawn),246 °C
8,CCCN(CCC)CCCCCOc1ccc2oc(-c3ccc(OC)cc3)cc(=O)c2c1,63 to 64 °C
9,Cc1ccc(C(C)CC(=O)NC(C)c2ccc(NS(C)(=O)=O)c(F)c2)cc1C (stereo not drawn),152 to 154 °C
10,CN(C)c1ccc(C2N(c3ccccc3)CCN2c2ccccc2)c(O)c1,161 to 165 °C
11,OCCCc1nc2cccnc2[nH]1,151 to 153 °C
12,CCCCc1nc2c(N)nc3ccccc3c2n1CCCC(=NOC)c1ccccc1,198 to 200 °C
13,CCC(CC)c1cccc2nc(C(O)c3c(C)cc(C)cc3C)n(C)c12 (stereo not drawn),132 to 134 °C
14,COc1ccc(C)cc1NC(=O)Nc1ccc(N2CCN(C(=O)C3CCCCC3C)CC2)cc1 (stereo not drawn),208 to 209 °C
15,O=C(O)c1c(OCc2cccc(OCc3ccc4ccccc4n3)c2)cccc1C(F)(F)F,184 to 185 °C
16,N#Cc1cc([N+](=O)[O-])ccc1Oc1cc(Cl)c(Cl)c(Cl)c1,162 to 164 °C
17,Cc1nc(N2CCc3ccccc3CC2)c(C#N)c(=O)n1C1CC1,177 to 179 °C
18,CCC(NC(=O)c1ccc(Cl)cc1)NC(=NC#N)Nc1cccnc1 (stereo not drawn),181 to 183 °C
19,Cn1ncc2c(c1=O)OCCNC2Cc1ccccc1 (stereo not drawn),113 to 115 °C
20,Nc1noc(-c2ccc(C(F)(F)F)cc2)c1Cl,115 to 118 °C
21,COc1ccc(S(=O)(=O)N2C(=O)C(N)(c3ccccc3OC)c3cc(Cl)ccc32)c(OC)c1 (stereo not drawn),172 to 173 °C
22,COCOc1c(OC)cc(C=O)cc1OC,52 to 53 °C
23,CCCCCC(CC(=O)Nc1cc(C(N)=O)ccc1C(C)(C)C)c1cc(OC)c(OC)cc1OC (stereo not drawn),166 to 167 °C
24,CCOC(=O)CCc1ccc(C)nc1,36 to 37 °C
25,Cc1nnc2nc(-c3ccccc3)ccn12,303 to 306 °C

row,SMILES,melting point
1,CSC1C(=O)Nc2ccc(Oc3ccc(C(F)(F)F)c(Cl)c3)cc21 (stereo not drawn),174 to 178 °C
2,COc1ccc(C(=O)NNC(C)=N)cc1,179 to 181 °C
3,Cc1cc(C)cc(Sc2c(CN3CCOCC3)c(C)[nH]c(=O)c2I)c1,230 °C
4,Cc1ccc(-c2c(C(=O)O)n(CCCBr)c(=O)c3ncccc23)cc1,194 to 196 °C
5,Cc1cc2c([nH]c1=O)C(=O)c1ccccc1C2=O,> 300 °C
6,CCCc1c(C(=O)OC)[nH]c2c(C)ccc(Cl)c12,109 to 110 °C
7,Cc1c(C)c(NCc2ccccc2)c2c(c1C)C(=O)C(C)(C)O2,108 to 109 °C
8,c1ccc(CCOc2ncnc3nc[nH]c23)cc1,209 to 210 °C
9,CCOC(=O)COC(=O)c1cc(S(N)(=O)=O)c(Cl)cc1NCc1ccco1,46 °C
10,Cc1cccc(C2CCCCS2=O)n1 (stereo not drawn),100 °C
11,C[C@H](O)C(=O)Nc1c(C(=O)c2ccccc2)[nH]c2cc(Cl)ccc12,185 to 190 °C
12,N#Cc1ccc(Cl)cc1OC[C@@H]1CO1,85 to 86 °C
13,CCOC(=O)c1cc2cc(Oc3ccc(S(C)(=O)=O)cc3)cc(OCc3nccn3C)c2[nH]1,91 to 92 °C
14,Cc1cc(C)cc(-c2cnn3c(-c4cccc(C#N)c4)ccnc23)c1,147 °C
15,CCCCCCCCC(Oc1ccc(C(=O)CCCCCCC)cc1)C(=O)O (racemic),45 to 47 °C
16,O=C(NCc1ccc(Cl)cc1)c1cnc2sc(Br)cc2c1O,234 to 236 °C
17,O=C1C=C(O)CC(c2ccccc2)N1 (stereo not drawn),166 to 169 °C
18,Cc1ccnc(N)c1C,79.5 to 81 °C
19,Cc1cc(-c2cccc3[nH]ccc23)nc(N)n1,242 to 244 °C
20,COC(=O)c1ccc(C(=O)N2CCN(C(=O)c3ccc(C(=O)OC)cc3)CC2)cc1,234 to 237 °C
21,O=C(O)C1=Cc2cc(C(F)F)ccc2OC1C(F)(F)F (stereo not drawn),135 to 136 °C
22,CC(C)(C)OC(=O)Nc1ccc(-c2c[nH]c(=O)cn2)cc1,267 to 269 °C
23,CC(C)c1ccc(Oc2ccc(C(=O)C=CC(=O)O)cc2)cc1,133 to 134 °C
24,COC(=O)c1nc(-c2ccc(Cl)cc2F)nc(N)c1Br,186 to 188 °C
25,CCOC(=O)c1cnc2c(N)c(Cl)c(F)cc2c1O,268 to 270 °C

row,SMILES,melting point
1,CCOC(=O)C1=C(C)NC(C)=C(C(=O)OCC)C1c1csc2cc([N+](=O)[O-])ccc12,191 to 194 °C
2,Cc1cc(Br)ccc1NC(=O)c1cc([N+](=O)[O-])ccc1NC(=O)CF,247 to 249 °C
3,COc1ccc(CNC(=O)c2ccc(Cl)cc2OCC(=O)O)cc1,178 to 179 °C
4,Cc1cc(C(N)=NO)ccc1[N+](=O)[O-],127 to 129 °C
5,CC(=O)ON(CCOc1ccc2c(c1)CCN(CCCc1ccc(F)cc1)C2=O)C(N)=O,113 to 114 °C
6,Cc1ccc(-c2cc(C(F)(F)F)n3ncc(C#N)c3n2)cc1,121 °C
7,CCCCCCCCCCCCCCCCCCOc1ccc2c(c1)C(=O)c1ccc(OCCCCCCCCCCCCCCCCCC)cc1C2=O,112 to 122 °C
8,COc1cc(C(C)=O)ccc1OCCCCN1CCN(c2nsc3ccccc23)CC1,114 to 116 °C
9,COC(=O)Nc1ccc2ccccc2c1-c1c(P(=O)(c2ccccc2)c2ccccc2)ccc2ccccc12,128 °C
10,COc1ccccc1N1CCN(CCNC(=O)CCN2CCC(c3c[nH]c4cc(F)ccc34)CC2)CC1,68 to 70 °C
11,CC1(C)OC(=O)Nc2ccc(-c3ccccc3F)cc21,164 to 165 °C
12,Nc1ccc(Cl)c(C(=O)NCCC23CC4CC(CC(C4)C2)C3)c1,147 to 149 °C
13,CCc1ccc(C=O)nc1,138 to 140 °C
14,CC(CCCc1ccccc1)c1cc2c(cc1O)C1C(=O)CCCC1C(C)(C)O2 (stereo not drawn),108 to 115 °C
15,CC(=O)Oc1ccc(-c2cc(=O)c3cccnc3o2)cc1,167 to 169 °C
16,Cc1ncc(-c2ccccc2)c(-c2ccc3c(c2)NC(=O)CO3)n1,229 °C
17,CCOC(=O)c1ccc(C#CCO)cc1,58 to 60 °C
18,Cc1c(C(=O)NC2CCCCC2)nc(-c2ccccc2Cl)n1-c1ccc([N+](=O)[O-])cc1,217 to 220 °C
19,COC(=O)c1ccc(O)cc1NC(=O)C=Cc1ccc(-c2ccccc2)cc1,292 to 296 °C
20,COC(=O)c1nn(Cc2ccccc2)c2c1CCc1cc(OCc3cncnc3)ccc1-2,202 to 203 °C
21,CCOc1c(C2=C(C(C)(C)C)C(C)(C)CO2)sc2ccc(O[Si](C)(C)C(C)(C)C)cc12,64 to 65 °C
22,CS(=O)(=O)c1ccc2c3c(cccc13)C(=O)N2,242 to 243 °C
23,C[C@H](NC(=O)CCn1cc(C2=C(c3cn(C)c4ccccc34)C(=O)NC2=O)c2ccccc21)C(=O)O,240 to 255 °C
